Assay results published in patent US6861220B2, “Genetic screening methods” (Ramot University Authority for Applied Research & …, priority 1999, dated 2005).

System: Clone 12 cells (HGPRT-deficient HT1080 fibrosarcoma cells)
Assay: Chemical synthetic lethality screen: retention of HGPRT-tpzGFP survival plasmid (tpzGFP/sphGFP fluorescence ratio) in microplates
Format: cell-based, human
Settings: for detection of chemical synthetic lethality (survival plasmid retention) in blind large-scale test: Clone 12 in 1200 wells, medium lacking selection, chemicals added at random together with guanine (FIG. 9)
Procedure: For pIS, selection in G418 (Calbiochem) was carried out at 400 microg/ml, while maintenance was at 50 microg/ml. For the HGPRT-tpzGFP survival plasmid, selection in hygromycin B (Sigma) was at 150 microg/ml while maintenance was at 50 microg/ml. […] GATA medium was DMEM with 10% dialyzed FCS, plus 3.5 microM guanine-HCI, 0.4 microM aminopterin, 16 microM thymidine and 35 microM adenine.
For fluorescent scanning, cells were trypsinized and distributed at 30,000 cells/well into 96 well microplates (TPP). Growth medium was changed twice a week and plates were grown for up to 75 days. […] Plates were prepared for scanning by replacement of medium in wells with Hank's balanced salt solution without phenol red. […] Plates were scanned with an FL600 microplate fluorescence reader using the KC4 software (Biotek Instruments). Excitation for sphGFP was at 380 nin with a bandpass of 20 nm, while emission was measured at 508 nm with a bandpass of 40 nm.
Excitation of tpzGFP was at 495 nm with a bandpass of 20 mn, while emission was measured at 535 nm with a bandpass of 40 nm. To avoid possible artifacts, all wells within a given experiment were assayed for the fluorescence of the two GFP mutants using fixed sensitivities. Integrated sphGFP was used as an internal control for the number of cells. This was achieved by dividing the relative fluorescence resulting from the episomal tpzGFP vector by the relative fluorescence for sphGFP for each well. This ratio was then divided by the average fluorescence ratio for cells maintained under hygromycin B or HAT selection, resulting in a value representing percent remaining fluorescence for each well as compared to wells maintained under continuous selection. The data points are an average for all wells and the calculated standard deviation. Cells were returned to growth medium immediately following scanning.
Its loss or retention can be determined by measuring its normalized fluorescence in a microplate reader. It was then necessary to test whether these features would enable the tracing of a synthetic lethality condition. […] Under these conditions, normal HGPRT-positive cells can use supplied guanine to produce GMP via the salvage pathway, and survive, while HGPRT-deficient cells die.

| Compound | detection of chemical synthetic lethality (survival plasmid retention) in blind large-scale test | retention of the survival plasmid (Clone 12 cells, 96 well plates, serial dilutions of drug and of guanine, three weeks (FIGS. 7, 8)) | retention of the survival plasmid over time (Clone 12 cells, GATA medium + 12.5 microgram/ml MPA, entire time period (FIG. 6)) | retention of the survival plasmid (tpzGFP to sphGFP fluorescence ratio), dose response (Clone 12 cells, GATA medium + MPA at successively higher concentrations, read after two weeks (FIG. 5)) |
| --- | --- | --- | --- | --- |
| N[C@@H](CN(O)N=O)C(=O)O [alanosine] | not retained |  |  |  |
| NC(=O)c1ncn([C@@H]2O[C@H](CO)[C@@H](O)[C@H]2O)c1O [mizoribine] | clearly detected | caused retention of the survival plasmid |  |  |
| COc1c(C)c2c(c(O)c1C/C=C(\C)CCC(=O)O)C(=O)OC2 [MPA, mycophenolic acid] | clearly detected |  | retention of the survival plasmid for the entire time period | caused increasing retention of the survival plasmid |
